# Experimental data reported in US5712269A, “M2 receptor ligand for the treatment of neurological disorders” (Pharmaceutical Discovery Corporation, priority 1995, dated 1998).
# Entries after “also recorded” stand apart in the source; their conditions may differ.
# How the values were obtained:
# [1] = partition coefficient between 1-octanol and 0.1M phosphate; assay type: physicochemical; conditions: 1-octanol / 0.1M phosphate
# [2] = tested on: mice; experiment: behavioral observation after intraperitoneal injection; assay type: in vivo, mouse
# [3] = target: T1, M2 receptors (Rattus norvegicus, UniProt P10980); experiment: inhibition of [^3 H]AF-DX-384 binding to M2 receptors in the rat brain
# T1 construct: from tissue; host or cells: rat brain
# T1 sequence (P10980 1-466): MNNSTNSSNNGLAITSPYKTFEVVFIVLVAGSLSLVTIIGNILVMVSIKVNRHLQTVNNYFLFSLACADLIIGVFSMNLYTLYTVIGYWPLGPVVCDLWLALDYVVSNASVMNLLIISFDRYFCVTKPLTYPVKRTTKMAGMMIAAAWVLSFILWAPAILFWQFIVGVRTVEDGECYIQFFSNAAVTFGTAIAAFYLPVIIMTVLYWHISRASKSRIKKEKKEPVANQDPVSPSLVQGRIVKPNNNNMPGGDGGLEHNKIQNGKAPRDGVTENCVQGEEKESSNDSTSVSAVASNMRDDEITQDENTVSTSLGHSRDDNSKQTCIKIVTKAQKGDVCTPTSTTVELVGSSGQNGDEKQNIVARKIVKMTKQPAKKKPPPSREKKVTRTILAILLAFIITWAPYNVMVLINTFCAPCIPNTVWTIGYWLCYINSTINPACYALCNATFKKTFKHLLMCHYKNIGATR
# Excerpt: FIG. 5 is a graph of the inhibition of [^3 H]AF-DX-384 binding to M2 receptors in the rat brain by PDC008.004, determined as % specific [^3 H]AFDX 384 binding versus log [PDC008.004] in nM.
# [4] = tested on: mice; experiment: Watermaze behavioral studies; assay type: in vivo, mouse (male C57 BL/6); conditions: 10 mg/kg intraperitoneally
# Excerpt: The following procedures are standard techniques routinely used by those skilled in the art (Morris, R. G. M., 1981)
# Male C57 BL/6 mice, 30 g body weight. Minimum 50 animals. Obtainable from The Jackson Laboratories, Bar Harbor, Rt. 3, Me. 04609.
# Circular water tank made of sturdy (10 mm thick, minimum) black (or very dark, opaque) lucite or other plastic. Diameter of the tank: 1 meter; Wall height: 50 cm. The tank must have a valve connected to a large diameter (min 1.5 cm inner) water filling/draining rubber hose (min. length 10 ft).
# Two targets, one made of the same plastic as the water tank (the "black target"), and one made of translucent variety. Base made of heavy lucite (1 inch thick) shaped as a square with 10 inch sides. Height between the upper surface of the base and the lower surface of the target platform: 20 cm. Target platform support: 20 cm tall, circular rod (1 inch diam.). Circular target platform, 8 cm across, made of 0.5 cm thick plastic and covered with a non-skid material (surgical tape can be used) painted either black or white (depending on the target).
# Regimen "A" consists of concurrent injections of either drug(s) or saline and swimming. Injections administered in a sequence: injection--24h--swim--2h--injection--24h--swim--2h--injection . . . etc., until a stable "time to target" plateau among the controls will be reached. […]
# [5] = tested on: muscarinic cholinergic receptor; conditions: background statement; cited from earlier work
smiles,measurement,setting,value
"CCN(CC)CCN(CC(=O)N1c2ccccc2C(=O)Nc2cccnc21)CC1CCCCC1.Cl [Compound 6, 11-[[[2-(Diethylamino)ethyl]cyclohexylmethylamino]-acetyl]-5,11-dihydro-6H-pyrido [2,3-b][1,4]-benzodiazepin-6-one hydrochloride salt]",partition coefficient (log P),[1],0.16
"CCN(CC)CCN(CC(=O)N1c2ccccc2C(=O)Nc2cccnc21)CC1CCCCC1 [PDC 008.004, 11-[[[2-(diethylamino)ethyl]cyclohexylmethylamino]-acetyl]-5,11-dihydro-6H-pyrido [2,3-b][1,4]-benzodiazepin-6-one]",partition coefficient (log P),[1],0.78±0.18
same,motor activity after a single injection,"[2]; 10 mg/kg, intraperitoneally, 24 hour period prior to behavioral testing",increased motor activity
same,signs observed in injected animals,[2]; 100 mg/kg intraperitoneally,"presence of dyskinesia, ataxia, and absence of flaccid paralysis"
same,penetration into the intracerebral space,"[2]; inferred from very swift central cholinergic mediated events, intraperitoneal",rapid penetration into the intracerebral space
same,Ki,[3],422 nM
same,movement pattern change in watermaze,[4]; 10 treated vs 10 control mice,substantial and significant (P>0.01) movement pattern change; also recorded: rapid shift from thygmotactic (wall-hugging) to center crossing and center crossing-goal oriented behavior
same,time required to find a hidden target (target latency) after the fourth trial,"[4]; daily injections, mice",substantial statistically significant (P<0.05) decrease
CN1[C@@H]2C[C@@H](OC(=O)[C@H](CO)c3ccccc3)C[C@H]1[C@@H]1O[C@@H]12 [scopolamine],effect on memory function,[5],impair memory function
